Results as given in patent US6124290A, “Polycyclic phthalazine compounds and their use” (Gruenenthal GmbH, priority 1996, dated 2000).
Converted amounts (≈) assume the structure as drawn. Read-outs that look alike come from different tables or passages of the source. Values belong to the compound of their own block, whether it stands above or below them.

Tests used:
[1] = system: Staphylococcus aureus 8325-4; assay: MIC, micro-broth dilution test according to DIN 58 940 (Part 8); type: cell-based
Description: (§1) The minimum inhibiting concentration (MIC) of the compounds was tested, in a micro-broth dilution test according to DIN 58 940 (Part 8), against the following bacterial strains: Staphylococcus aureus, strains 8325-4 (a sensitive Staphylococcus aureus strain which is representative of the species), NCTC 6571 (a sensitive international control strain), 108/83 (an "old" MRSA without quinolone-resistance), 134/94 (a "new" MRSA, with quinolone-resistance), Staphylococcus epidermidis CCM 2124 (a sensitive control strain), Enterococcus faecium 70/90 (a vancomycin-resistant strain) and 64/3 (a sensitive strain). The known substances vancomycin, teicoplanin and ciprofloxacin were used for comparison in the tests, even though they are structurally different.

[2] = system: Staphylococcus aureus 134/94; assay: as above; type: cell-based; details: for MIC: Staphylococcus aureus, read-out: MIC, Staphylococcus aureus 134/94
Description: as §1

[3] = system: Staphylococcus aureus 108/83; assay: as above; type: cell-based; details: for MIC: Staphylococcus aureus, read-out: MIC, Staphylococcus aureus 108/83
Description: as §1

[4] = background section; cited from earlier work
[5] = system: Staphylococcus epidermidis CCM 2124; assay: MIC, micro-broth dilution test according to DIN 58 940 (Part 8); type: cell-based; details: for MIC: Staphylococcus epidermidis
Description: as §1

[6] = system: Enterococcus faecium 70/90; assay: as above; type: cell-based; details: for MIC: Enterococcus faecium
Description: as §1

[7] = system: Staphylococcus aureus NCTC 6571; assay: as above; type: cell-based; details: NCTC6571, sensitive international control strain
Description: as §1

[8] = system: Enterococcus faecium 64/3; assay: as above; type: cell-based; details: for MIC: Enterococcus faecium
Description: as §1, with “strain).” for “strain). The known substances vancomycin, teicoplanin and ciprofloxacin were used for comparison in the tests, even though they are structurally different.”

[9] = 83254, sensitive Staphylococcus aureus strain, representative of the species, read-out: MIC, Staphylococcus aureus 8325-4
[10] = "new" MRSA, with quinolone-resistance
[11] = "old" MRSA, without quinolone-resistance
[12] = CCM2124, sensitive control strain, read-out: MIC, Staphylococcus epidermidis CCM 2124
[13] = 70/90, vancomycin-resistant strain, read-out: MIC, Enterococcus faecium 70/90
[14] = 64/3, sensitive strain, read-out: MIC, Enterococcus faecium 64/3
[15] = Staphylococcus aureus, 83254, read-out: MIC, Staphylococcus aureus 8325-4
[16] = CCM2124, read-out: MIC, Staphylococcus epidermidis CCM 2124

MIC [1, 9]: 63 µg/mL (≈ 110 µM) | MIC [2, 10]: 16 µg/mL (≈ 27.9 µM) | MIC [3, 11]: 32 µg/mL (≈ 55.9 µM)
Compound: CCC(C(=O)O)n1ncc2cc3c(c(O)c2c1=O)-c1c(O)c2c(c(OC)c1CC3)C(=O)c1c(cc(O)c(C)c1O)C2=O (racemic) [Substance 4]

Compound: COc1c2c(c(O)c3c1C(=O)c1c(cc(O)c(C)c1O)C3=O)-c1c(cc3c(c1O)C(=O)OC3O)CC2 (stereo not shown) [Madurahydroxylactone, 3,9,11,14,15-pentahydroxy-10-methyl-7-methoxy-1,8,13-trioxo-1,3,5,6,8,13-hexahydro-naphthaceno-[1,2-f]-benzoisofurane]
biological efficacy [4]: unsatisfactory biological efficacy

MIC [1, 9]: 500 µg/mL (≈ 824 µM) | MIC [5, 12]: < 125 µg/mL | MIC [6, 13]: 500 µg/mL (≈ 824 µM) | MIC [2, 10]: 500 µg/mL (≈ 824 µM) | MIC [7]: < 125 µg/mL | MIC [3, 11]: 250 µg/mL (≈ 412 µM) | MIC [8, 14]: 500 µg/mL (≈ 824 µM)
Compound: COc1c2c(c(O)c3c1C(=O)c1c(cc(O)c(C)c1O)C3=O)-c1c(cc3cnn(-c4ccc(C(=O)O)cc4)c(=O)c3c1O)CC2 [Substance 1]

MIC [1, 9]: 63 µg/mL (≈ 116 µM) | MIC [5, 12]: < 125 µg/mL | MIC [6, 13]: 2000 µg/mL (≈ 3670 µM) | MIC [2, 10]: 250 µg/mL (≈ 459 µM) | MIC [7]: < 125 µg/mL | MIC [3, 11]: 63 µg/mL (≈ 116 µM) | MIC [8, 14]: 500 µg/mL (≈ 918 µM)
Compound: COc1c2c(c(O)c3c1C(=O)c1c(cc(O)c(C)c1O)C3=O)-c1c(cc3cnn(CC(=O)O)c(=O)c3c1O)CC2 [Substance 3, 10,12, 15,16-tetrahydroxy-8-methoxy-2-carboxynmethyl-11-methyl-1,9,14-trioxo-1,2,6,7,9,14-hexahydro-naphthaceno-[1,2-g]-phthalazine]

Compound: O=C(O)c1cn(C2CC2)c2cc(N3CCNCC3)c(F)cc2c1=O [ciprofloxacin]
MIC [1, 15]: 250 µg/mL (≈ 754 µM) | MIC [5, 16]: 250 µg/mL (≈ 754 µM) | MIC ([6]; 70/90, read-out: MIC, Enterococcus faecium 70/90): 1000 µg/mL (≈ 3020 µM) | MIC ([2]; MRSA): 16000 µg/mL (≈ 48300 µM) | MIC ([3]; MRSA): 250 µg/mL (≈ 754 µM)

Compound: CN[C@H](CC(C)C)C(=O)N[C@H]1C(=O)N[C@@H](CC(N)=O)C(=O)N[C@H]2C(=O)N[C@H]3C(=O)N[C@H](C(=O)N[C@H](C(=O)O)c4cc(O)cc(O)c4-c4cc3ccc4O)[C@H](O)c3ccc(c(Cl)c3)Oc3cc2cc(c3O[C@@H]2O[C@H](CO)[C@@H](O)[C@H](O)[C@H]2O[C@H]2C[C@](C)(N)[C@H](O)[C@H](C)O2)Oc2ccc(cc2Cl)[C@H]1O [vancomycin]
MIC [1, 15]: 500 µg/mL (≈ 345 µM) | MIC [5, 16]: 500 µg/mL (≈ 345 µM) | MIC ([2]; MRSA): 500 µg/mL (≈ 345 µM) | MIC ([3]; MRSA): 500 µg/mL (≈ 345 µM) | MIC ([8]; 64/3, read-out: MIC, Enterococcus faecium 64/3): < 250 µg/mL

Compound: teicoplanin
MIC, Staphylococcus aureus 8325-4 ([1]; sensitive Staphylococcus aureus strain, representative of the species): 500 µg/mL | MIC, Staphylococcus epidermidis CCM 2124 ([5]; sensitive control strain): 500 µg/mL | MIC, Enterococcus faecium 70/90 ([6]; vancomycin-resistant strain): 256000 µg/mL | MIC, Staphylococcus aureus 134/94 [2, 10]: 500 µg/mL | MIC, Staphylococcus aureus 108/83 [3, 11]: 500 µg/mL | MIC, Enterococcus faecium 64/3 ([8]; sensitive strain): < 250 µg/mL
